The target of experiment [1] is USP1-UAF1 (Homo sapiens, UniProt O94782). As to the kind of experiment: Ubiquitin Rhodamine assay for USP1-UAF1 activity. The class given is biochemical. Here is the method: Certain compounds of the disclosure were assessed for USP1-UAF1 activity in a Ubiquitin Rhodamine assay as described in Example 135.
Experiment [2] concerns MDA-MB-436 (BRCA1 mutant) cell line. As to the kind of experiment: Viability assay in BRCA1 mutant cell line MDA-MB-436. The format is cell-based. As to conditions: Homo sapiens, MDA-MB-436, viability, BRCA1 mutant MDA-MB-436; read-out: MDA-MB-436 rel IC50. The source says: (§1) Table 1 also indicates IC50 values in a viability assay for a non-isogenic pair of BRCA1 mutant (column 5—MDA-MB-436) and BRCA1 WT (column 6—HCC1954) cell lines. These values indicate the effect of treatment with compound on cell survival.

Experiment [3] has as its system HCC1954 (BRCA1 WT) cell line. As to the kind of experiment: Viability assay in BRCA1 WT cell line HCC1954. The note with it: Homo sapiens, read-out: HCC 1954 IC50 rel IC50. The format is cell-based.
Text: as §1

The test system of experiment [4] is monoubiquitinated PCNA. As to the kind of experiment: AlphaLISA assay measuring monoubiquitinated PCNA in MDA-MB-436. The class given is cell-based. As to conditions: Homo sapiens, read-out: Alpha LISA IC50. From the text:
Table 1 also indicates IC50 values for exemplary compounds in an AlphaLISA assay measuring monoubiquitinated PCNA in a BRCA1 mutant cell line (MDA-MB-436; column 7).
Background: Bead proximity is the source of the signal in Alpha formats.

Chain of USP1-UAF1 (O94782 whole entry): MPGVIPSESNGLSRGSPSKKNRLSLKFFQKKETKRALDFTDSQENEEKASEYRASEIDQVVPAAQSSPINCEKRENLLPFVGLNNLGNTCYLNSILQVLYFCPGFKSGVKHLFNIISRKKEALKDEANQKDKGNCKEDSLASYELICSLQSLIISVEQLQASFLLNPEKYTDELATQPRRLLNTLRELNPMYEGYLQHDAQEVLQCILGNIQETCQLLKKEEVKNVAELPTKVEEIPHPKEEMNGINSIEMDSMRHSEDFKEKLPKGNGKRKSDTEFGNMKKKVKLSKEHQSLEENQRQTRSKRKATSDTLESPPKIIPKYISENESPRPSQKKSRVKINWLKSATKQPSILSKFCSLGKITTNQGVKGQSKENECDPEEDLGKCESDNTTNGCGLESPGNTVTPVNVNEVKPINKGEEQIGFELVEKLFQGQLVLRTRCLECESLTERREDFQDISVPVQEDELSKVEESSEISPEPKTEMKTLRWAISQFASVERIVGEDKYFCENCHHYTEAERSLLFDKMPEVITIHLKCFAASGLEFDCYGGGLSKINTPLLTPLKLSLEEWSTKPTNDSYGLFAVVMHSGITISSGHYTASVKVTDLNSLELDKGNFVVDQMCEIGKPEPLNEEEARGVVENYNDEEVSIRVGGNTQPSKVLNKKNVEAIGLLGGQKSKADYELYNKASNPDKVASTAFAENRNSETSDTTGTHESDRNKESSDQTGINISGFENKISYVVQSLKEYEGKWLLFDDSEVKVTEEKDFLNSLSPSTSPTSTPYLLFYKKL
Chain of USP1-UAF1 (Q8TAF3 whole entry partner): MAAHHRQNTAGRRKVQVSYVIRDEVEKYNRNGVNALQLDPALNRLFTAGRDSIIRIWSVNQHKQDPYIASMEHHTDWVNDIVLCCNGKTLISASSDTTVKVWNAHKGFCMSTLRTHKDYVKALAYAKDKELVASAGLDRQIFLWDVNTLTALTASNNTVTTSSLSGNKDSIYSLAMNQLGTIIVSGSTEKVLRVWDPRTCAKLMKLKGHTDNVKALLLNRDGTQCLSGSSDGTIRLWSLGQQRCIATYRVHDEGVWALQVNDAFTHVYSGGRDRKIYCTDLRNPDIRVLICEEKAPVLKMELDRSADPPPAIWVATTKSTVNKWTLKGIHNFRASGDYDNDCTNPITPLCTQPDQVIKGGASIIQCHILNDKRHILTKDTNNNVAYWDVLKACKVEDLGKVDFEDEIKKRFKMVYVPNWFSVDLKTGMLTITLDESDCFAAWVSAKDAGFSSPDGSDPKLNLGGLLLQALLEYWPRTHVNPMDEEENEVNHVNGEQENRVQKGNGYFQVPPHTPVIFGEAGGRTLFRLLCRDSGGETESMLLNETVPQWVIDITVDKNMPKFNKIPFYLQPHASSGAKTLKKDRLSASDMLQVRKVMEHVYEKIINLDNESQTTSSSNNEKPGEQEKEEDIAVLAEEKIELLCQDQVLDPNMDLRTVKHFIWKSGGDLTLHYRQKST

By IC50 is commonly meant the concentration at which inhibition is half-maximal. Regarding `CCn1cc(C(F)(F)F)nc1-c1ccc(Cc2n[nH]c3cnc(-c4c(OC)ncnc4C4CC4)nc23)cc1` [Compound 165, 5-(4-cyclopropyl-6-methoxypyrimidin-5-yl)-3-(4-(1-ethyl-4-(trifluoromethyl)-1H-imidazol-2-yl)benzyl)-1H-pyrazolo[4,3-d]pyrimidine], the IC50 in experiment [1] is less than 0.03 µM; in experiment [2], less than 0.1 µM; in experiment [3], no less than 10 µM; in experiment [4], less than 0.1 µM.

Regarding `COc1ncnc(C2CC2)c1-c1ncc2nn(CC(F)(F)F)c(Cc3ccc(-c4nc(C(F)(F)F)cn4C)cc3)c2n1` [Compound 131, 5-(4-cyclopropyl-6-methoxy-pyrimidin-5-yl)-3-[[4-[1-methyl-4-(trifluoromethyl)imidazol-2-yl]phenyl]methyl]-2-(2,2,2-trifluoroethyl)pyrazolo[4,3-d]pyrimidine], the IC50 was 0.1 to 10 µM in experiment [1], less than 0.1 µM in experiment [2], no less than 10 µM in experiment [3] and less than 0.1 µM in experiment [4].

On to `Cn1cc(C(F)(F)F)nc1-c1ccc(Cc2n[nH]c3cnc(-c4c(C5CC5)ccnc4C4CC4)nc23)cc1` [Compound 174], for which the half-inhibitory concentration (IC50) in experiment [1] was less than 0.03 µM; in experiment [2], 0.1 to 0.25 µM; in experiment [3], no less than 10 µM; in experiment [4], 0.1 to 0.25 µM.

As for `COc1ncnc(C2(F)CC2)c1-c1ncc2[nH]nc(Cc3ccc(-c4nc(C(F)(F)F)cn4C)cc3)c2n1` [Compound 202, 5-[4-(1-fluorocyclopropyl)-6-methoxy-pyrimidin-5-yl]-3-[[4-[1-methyl-4-(trifluoromethyl)imidazol-2-yl]phenyl]methyl]-1H-pyrazolo[4,3-d]pyrimidine], the IC50 was less than 0.03 µM in experiment [1], less than 0.1 µM in experiment [2], no less than 10 µM in experiment [3] and less than 0.1 µM in experiment [4].

Regarding `CC(C)n1cc(C(F)(F)F)nc1-c1ccc(Cc2c[nH]c3cnc(-c4c(OC(F)F)ncnc4C4CC4)nc23)cc1` [Compound 132], the IC50 in experiment [1] is less than 0.03 µM; in experiment [2] it was less than 0.1 µM; in experiment [3], no less than 10 µM; in experiment [4], less than 0.1 µM.

For `COc1ncnc(C2CC2)c1-c1ncc2[nH]cc(C(O)(c3ccc(-c4nc(C(F)(F)F)cn4C)cc3)C(C)C)c2n1` (stereo not shown) [Compound 199], the IC50 in experiment [1] fell in the range of 0.1 to 10 µM; in experiment [2], 0.1 to 0.25 µM; in experiment [3], 0.25 to 10 µM; in experiment [4] it was 0.1 to 0.25 µM.

Turning to `CCn1cc(C(F)(F)F)nc1-c1ccc(Cc2c3nc(-c4c(OC)ncnc4C4CC4)ncc3nn2C)cc1` [Compound 139, 5-(4-cyclopropyl-6-methoxypyrimidin-5-yl)-3-(4-(1-ethyl-4-(trifluoromethyl)-1H-imidazol-2-yl)benzyl)-2-methyl-2H-pyrazolo[4,3-d]pyrimidine], the IC50 in experiment [1] was 0.03 to 0.1 µM; in experiment [2], less than 0.1 µM; in experiment [3], no less than 10 µM; in experiment [4] it was less than 0.1 µM.

As to `CN1CC(n2cc(C(F)(F)F)nc2-c2ccc(Cc3c[nH]c4cnc(-c5cccnc5OC(F)F)nc34)cc2)C1` [Compound 20, 2-[2-(difluoromethoxy)-3-pyridyl]-7-[[4-[1-(1-methylazetidin-3-yl)-4-(trifluoromethyl)imidazol-2-yl]phenyl]methyl]-5H-pyrrolo[3,2-d]pyrimidine], the half-inhibitory concentration (IC50) in experiment [1] was 0.1 to 10 µM; in experiment [2], 0.1 to 0.25 µM; in experiment [3], no less than 10 µM; in experiment [4] it was less than 0.1 µM.

On to `Cn1cc(C(F)(F)F)nc1-c1ccc(Cc2c[nH]c3cnc(-c4c(C5CC5)ccnc4C4CC4)nc23)cc1` [Compound 122], for which the IC50 in experiment [1] is less than 0.03 µM; in experiment [2], 0.1 to 0.25 µM; in experiment [3], no less than 10 µM; in experiment [4], 0.25 to 10 µM.

Regarding `COc1ncnc(C2CC2)c1-c1ncc2[nH]c(CN)c(Cc3ccc(-c4nc(C(F)(F)F)cn4C)cc3)c2n1` [Compound 119], the IC50 in experiment [1] fell in the range of 0.1 to 10 µM; in experiment [2] it was 0.1 to 0.25 µM; in experiment [3], 0.25 to 10 µM; in experiment [4] it was 0.25 to 10 µM.

With `COc1ncnc(C2CC2)c1-c1ncc2[nH]nc(Cc3ccc(-c4nc(C(F)(F)F)cn4C)c(C)c3)c2n1` [Compound 95, 5-(4-cyclopropyl-6-methoxy-pyrimidin-5-yl)-3-[[3-methyl-4-[1-methyl-4-(trifluoromethyl)imidazol-2-yl]phenyl]methyl]-1H-pyrazolo[4,3-d]pyrimidine], the IC50 in experiment [1] is less than 0.03 µM; in experiment [2], less than 0.1 µM; in experiment [3], no less than 10 µM; in experiment [4], less than 0.1 µM.

Consider `CNCc1[nH]c2cnc(-c3c(OC)ncnc3C3CC3)nc2c1Cc1ccc(-c2nc(C(F)(F)F)cn2C)cc1` [Compound 159, 1-[2-(4-cyclopropyl-6-methoxy-pyrimidin-5-yl)-7-[[4-[1-methyl-4-(trifluoromethyl)imidazol-2-yl]phenyl]methyl]-5H-pyrrolo[3,2-d]pyrimidin-6-yl]-N-methyl-methanamine], for which the IC50 in experiment [1] was 0.1 to 10 µM; in experiment [2] it was 0.1 to 0.25 µM; in experiment [3], 0.25 to 10 µM; in experiment [4] it was 0.1 to 0.25 µM.

On to `COc1cccc(OC)c1-c1ncc2[nH]cc(Cc3ccc(-c4nc(C(F)(F)F)cn4C)cc3)c2n1` [Compound 194], for which the IC50 in experiment [1] was 0.03 to 0.1 µM; in experiment [2] it was 0.1 to 0.25 µM; in experiment [3], no less than 10 µM; in experiment [4], 0.25 to 10 µM.

In the case of `CCOc1cc(C(F)(F)F)nn1-c1ccc(Cc2n[nH]c3cnc(-c4c(OC)ncnc4C4CC4)nc23)cc1` [Compound 123, 5-(4-cyclopropyl-6-methoxy-pyrimidin-5-yl)-3-[[4-[5-ethoxy-3-(trifluoromethyl)pyrazol-1-yl]phenyl]methyl]-1H-pyrazolo[4,3-d]pyrimidine], the IC50 in experiment [1] is less than 0.03 µM; in experiment [2] it was less than 0.1 µM; in experiment [3] it was 0.25 to 10 µM; in experiment [4] it was less than 0.1 µM.

Turning to `COc1ncnc(C2CC2)c1-c1ncc2c(n1)c(Cc1ccc(-c3nc(C(F)(F)F)cn3C)cc1)nn2CC(F)(F)F` [Compound 190, 5-(4-cyclopropyl-6-methoxy-pyrimidin-5-yl)-3-[[4-[1-methyl-4-(trifluoromethyl)imidazol-2-yl]phenyl]methyl]-1-(2,2,2-trifluoroethyl)pyrazolo[4,3-d]pyrimidine], the IC50 is 0.03 to 0.1 µM in experiment [1], less than 0.1 µM in experiment [2], no less than 10 µM in experiment [3] and less than 0.1 µM in experiment [4].

Turning to `CCCOc1ncccc1-c1ncc2[nH]cc(Cc3ccc(-c4nc(C(F)(F)F)cn4C)cc3)c2n1` [Compound 34, 7-[[4-[1-methyl-4-(trifluoromethyl)imidazol-2-yl]phenyl]methyl]-2-(2-propoxy-3-pyridyl)-5H-pyrrolo[3,2-d]pyrimidine], the IC50 is 0.03 to 0.1 µM in experiment [1], 0.1 to 0.25 µM in experiment [2], no less than 10 µM in experiment [3] and 0.1 to 0.25 µM in experiment [4].

On to `[2H]C([2H])([2H])Oc1ncnc(C2CC2)c1-c1ncc2[nH]nc(Cc3ccc(-c4nc(C(F)(F)F)cn4C)cc3)c2n1` [Compound 163, 5-[4-cyclopropyl-6-(trideuteriomethoxy)pyrimidin-5-yl]-3-[[4-[1-methyl-4-(trifluoromethyl)imidazol-2-yl]phenyl]methyl]-1H-pyrazolo[4,3-d]pyrimidine], for which the IC50 in experiment [1] is less than 0.03 µM; in experiment [2] it was less than 0.1 µM; in experiment [3] it was no less than 10 µM; in experiment [4] it was less than 0.1 µM.

Turning to `CC(C)c1ccccc1-c1cc2c(Nc3ccc(-c4nc(C(F)(F)F)cn4C)cc3)c[nH]c2cn1` [Compound 17], the IC50 in experiment [1] was 0.1 to 10 µM; in experiment [2], 0.25 to 10 µM; in experiment [3] it was 0.25 to 10 µM; in experiment [4] it was less than 0.1 µM.

On to `COc1ncnc(C2CC2)c1-c1cc2c(Cc3ccc(-c4nc(C(F)(F)F)cn4C)cc3)n[nH]c2cn1` [Compound 177, 5-(4-cyclopropyl-6-methoxypyrimidin-5-yl)-3-(4-(1-methyl-4-(trifluoromethyl)-1H-imidazol-2-yl)benzyl)-1H-pyrazolo[3,4-c]pyridine], for which the IC50 in experiment [1] is less than 0.03 µM; in experiment [2], less than 0.1 µM; in experiment [3], no less than 10 µM; in experiment [4], less than 0.1 µM.

For `CC(C)n1cc(C(F)(F)F)nc1-c1ccc(Cc2n[nH]c3cnc(-c4c(OC(F)F)ncnc4C4CC4)nc23)cc1` [Compound 137, 5-(4-cyclopropyl-6-(difluoromethoxy)pyrimidin-5-yl)-3-(4-(1-isopropyl-4-(trifluoromethyl)-1H-imidazol-2-yl)benzyl)-1H-pyrazolo[4,3-d]pyrimidine], the IC50 was less than 0.03 µM in experiment [1], less than 0.1 µM in experiment [2], 0.25 to 10 µM in experiment [3] and less than 0.1 µM in experiment [4].

As to `COc1ncnc(C(C)(C)C)c1-c1ncc2[nH]cc(Cc3ccc(-c4nc(C(F)(F)F)cn4C)cc3)c2n1` [Compound 124, 2-(4-tert-butyl-6-methoxy-pyrimidin-5-yl)-7-[[4-[1-methyl-4-(trifluoromethyl)imidazol-2-yl]phenyl]methyl]-5H-pyrrolo[3,2-d]pyrimidine], the IC50 in experiment [1] is 0.03 to 0.1 µM; in experiment [2], less than 0.1 µM; in experiment [3], no less than 10 µM; in experiment [4], 0.1 to 0.25 µM.

As to `CC(C)n1cc(C(F)(F)F)nc1-c1ccc(Cc2c[nH]c3cnc(-c4cccnc4OC(F)F)nc23)cc1` [Compound 28, 2-[2-(difluoromethoxy)-3-pyridyl]-7-[[4-[1-isopropyl-4-(trifluoromethyl)imidazol-2-yl]phenyl]methyl]-5H-pyrrolo[3,2-d]pyrimidine], the 50% inhibitory concentration (IC50) in experiment [1] is 0.03 to 0.1 µM; in experiment [2], less than 0.1 µM; in experiment [3] it was no less than 10 µM; in experiment [4], 0.1 to 0.25 µM.

(Values after patent US20240182481A1 (Tango Therapeutics, Inc., priority 2021, published 2024).)
